Measurements published in patent publication US20260001875A1, “AMINOPYRIMIDINYL DERIVATIVES FOR THE TREATMENT OF PARKINSON'S DISEASE” (UNIVERSITY OF DUNDEE, priority 2022, published 2026).

How the values were obtained:
LRRK2^G2019S = target: T1, LRRK2^G2019S (Mus musculus, UniProt Q5S006, G2019S); test: Western blot LRRK2 degradation in LRRK2^G2019S MEFs; type: cell-based; conditions: dose response, 4 h treatment; for Dmax: read-out: Dmax on G2019S MEFs
T1 construct: endogenous in cells; host or cells: LRRK2[G2019S] mouse embryonic fibroblasts (MEFs)
T1 sequence (Q5S006 whole entry G2019S): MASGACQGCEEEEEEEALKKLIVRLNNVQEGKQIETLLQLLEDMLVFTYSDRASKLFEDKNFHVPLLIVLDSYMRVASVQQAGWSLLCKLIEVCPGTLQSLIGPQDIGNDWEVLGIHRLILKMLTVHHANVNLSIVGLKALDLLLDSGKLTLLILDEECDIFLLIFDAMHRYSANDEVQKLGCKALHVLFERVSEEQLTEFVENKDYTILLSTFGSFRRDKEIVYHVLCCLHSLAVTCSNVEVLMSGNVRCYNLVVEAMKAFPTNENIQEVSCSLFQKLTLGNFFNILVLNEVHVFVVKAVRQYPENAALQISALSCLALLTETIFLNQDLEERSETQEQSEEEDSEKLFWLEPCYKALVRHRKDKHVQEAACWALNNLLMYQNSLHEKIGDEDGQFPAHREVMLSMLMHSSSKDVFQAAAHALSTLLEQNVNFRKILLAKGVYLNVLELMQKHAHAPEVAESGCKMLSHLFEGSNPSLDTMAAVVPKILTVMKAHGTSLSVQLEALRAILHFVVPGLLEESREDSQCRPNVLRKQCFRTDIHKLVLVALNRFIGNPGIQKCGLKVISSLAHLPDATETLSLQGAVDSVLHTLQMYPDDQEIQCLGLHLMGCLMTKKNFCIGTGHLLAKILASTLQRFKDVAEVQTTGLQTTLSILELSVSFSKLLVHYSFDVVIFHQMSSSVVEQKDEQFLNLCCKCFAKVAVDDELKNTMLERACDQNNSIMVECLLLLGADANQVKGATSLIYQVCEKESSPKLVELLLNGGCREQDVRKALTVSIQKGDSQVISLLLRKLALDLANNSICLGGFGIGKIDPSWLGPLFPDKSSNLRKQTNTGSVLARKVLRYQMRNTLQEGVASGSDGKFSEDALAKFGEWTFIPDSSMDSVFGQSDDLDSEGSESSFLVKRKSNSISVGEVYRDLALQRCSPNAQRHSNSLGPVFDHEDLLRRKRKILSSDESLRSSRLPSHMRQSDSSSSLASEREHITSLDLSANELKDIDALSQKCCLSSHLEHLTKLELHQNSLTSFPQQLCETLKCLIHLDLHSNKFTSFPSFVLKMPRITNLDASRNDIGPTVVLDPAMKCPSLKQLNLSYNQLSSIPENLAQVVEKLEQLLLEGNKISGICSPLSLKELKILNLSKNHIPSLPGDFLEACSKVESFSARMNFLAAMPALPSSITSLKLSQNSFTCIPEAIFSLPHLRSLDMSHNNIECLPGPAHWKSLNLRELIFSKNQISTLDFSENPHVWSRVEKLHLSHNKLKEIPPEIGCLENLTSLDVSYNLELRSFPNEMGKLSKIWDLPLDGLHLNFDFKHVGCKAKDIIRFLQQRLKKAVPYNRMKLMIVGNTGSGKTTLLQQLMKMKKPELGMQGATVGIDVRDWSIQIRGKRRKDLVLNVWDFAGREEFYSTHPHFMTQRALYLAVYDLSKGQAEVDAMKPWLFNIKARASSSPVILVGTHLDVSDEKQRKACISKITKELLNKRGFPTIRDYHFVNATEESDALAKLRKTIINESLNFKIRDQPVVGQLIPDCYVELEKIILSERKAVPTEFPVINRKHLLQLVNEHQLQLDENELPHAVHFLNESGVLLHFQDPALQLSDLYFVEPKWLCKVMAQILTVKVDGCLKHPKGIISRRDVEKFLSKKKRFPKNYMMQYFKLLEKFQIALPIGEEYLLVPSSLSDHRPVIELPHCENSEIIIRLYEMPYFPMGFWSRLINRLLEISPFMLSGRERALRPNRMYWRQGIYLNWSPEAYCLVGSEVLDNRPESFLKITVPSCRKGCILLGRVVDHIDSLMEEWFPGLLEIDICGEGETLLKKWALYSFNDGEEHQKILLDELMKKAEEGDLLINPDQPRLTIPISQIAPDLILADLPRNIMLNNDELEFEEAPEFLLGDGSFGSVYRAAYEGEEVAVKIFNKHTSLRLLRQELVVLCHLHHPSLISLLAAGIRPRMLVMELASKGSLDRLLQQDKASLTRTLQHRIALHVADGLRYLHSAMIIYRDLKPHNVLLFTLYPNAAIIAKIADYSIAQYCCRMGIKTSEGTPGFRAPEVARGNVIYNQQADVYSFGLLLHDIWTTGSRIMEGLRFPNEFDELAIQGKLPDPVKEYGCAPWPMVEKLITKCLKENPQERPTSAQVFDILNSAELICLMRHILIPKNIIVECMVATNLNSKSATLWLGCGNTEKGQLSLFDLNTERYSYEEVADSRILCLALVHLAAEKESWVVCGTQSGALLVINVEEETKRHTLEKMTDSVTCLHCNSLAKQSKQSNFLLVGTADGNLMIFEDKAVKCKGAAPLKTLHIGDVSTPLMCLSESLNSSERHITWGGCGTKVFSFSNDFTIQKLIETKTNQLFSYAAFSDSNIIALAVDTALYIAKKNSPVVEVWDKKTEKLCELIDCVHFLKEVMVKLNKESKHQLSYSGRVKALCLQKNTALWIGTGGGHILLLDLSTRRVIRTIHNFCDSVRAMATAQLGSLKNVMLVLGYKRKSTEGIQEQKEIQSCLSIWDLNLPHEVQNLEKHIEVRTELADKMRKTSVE
Procedure: (§1) The second-generation PROTACs were tested in parallel with the first generation PROTACs SD75, SD82, and SD100. The compounds were tested at 33 nM or […] concentrations for 4 hours or 24 hours, running two biological replicates per condition and achieving quantifications representative of both replicates. Analysis by quantitative immunoblotting was performed with readouts of the total LRRK2 (antibody recognizes epitope in C-terminus of protein), Rab10 pThr73 (physiological substrate) and LRRK2 pSer935 (biomarker phosphorylation site).
(§2) Primary MEFs were generated as described in a previous study (Wiggin et al., Mol. Cell Biol. 2002 April; 22(8):2871-81.). Briefly, the uterine horn was collected from adult female mice at day E12.5 and transferred to a 10 cm tissue culture dish containing cold PBS. Two forceps were used to tear the yolk sacs to isolate each embryo. Forceps were cleaned thoroughly with 70% ethanol between each embryo isolation. The embryos were culled, and a tissue piece was collected in a PCR tube for genotyping. The red tissue of the embryo, which grows to become the heart and liver, was removed. The remainder of the embryo was minced with a scalpel blade and incubated with 7.5 ml trypsin-EDTA solution for 10 minutes in a 37° C. tissue culture CO2 incubator. The dish was removed from the incubator and checked under a light microscope for single cells. 7.5 ml complete media was added to the trypsinised cells, and the cell suspension was transferred to a 15 ml Falcon tube, centrifuged at 1200 rpm for 5 minutes at room temperature. The trypsin was aspirated, the cell pellet was resuspended in 5 ml fresh complete media, and the cell suspension was plated in a 60 mm tissue culture dish and incubated in a 37° C., 5% CO2 tissue culture incubator. The MEFs at this stage were considered as passage 0 and were passaged and expanded for experimental use once the genotype was confirmed by allelic sequencing and immunoblotting. MEFs were cultured in Dulbecco's modified Eagle medium (DMEM) containing 10% (v/v) fetal bovine serum (FBS), 2 mM L-glutamine, 100 U/ml penicillin, and 100 μg/ml streptomycin supplemented with 1× non-essential amino acids and 1 mM sodium pyruvate.
Culturing and passaging of adherent cell lines were carried out using aseptic technique in CL1 or CL2 (for PBMC isolation) biological safety cabinets. All cells were incubated in a 37° C. incubator with 5% CO2. Cell lines were regularly tested for mycoplasma contamination. For western blot assay, the cells were seeded in 6-well plates. […] The cells were immediately placed on ice and were scraped and collected into 1.5 ml Eppendorf tubes. Cell lysates were incubated on ice for 10 minutes prior to centrifugation at 15,000 g at 4° C. for 15 minutes. The cell pellet was discarded, and supernatant was collected for analysis by quantitative immunoblotting. For long term storage, the supernatant was flash frozen and stored at −80° C. Protein concentrations of cell lysates were determined using the Bradford assay.
Cell lysates containing a quarter of a volume of 4× NuPAGE LDS sample buffer (NP0007) supplemented with 5% β-mercaptoethanol, were heated at 95° C. for 5 minutes. 15 to 20 μg of samples were loaded onto pre-cast 4-12% Bis-Tris midi 20W or 26W gels (Thermofisher Scientific®, Cat #WG1402BOX or WG1403BOX) and resolved at 130 V for 2 hours with NuPAGE MOPS SDS running buffer (Thermofisher Scientific® Cat #NP0001-02). Proteins were electrophoretically transferred onto a 0.45 μm nitrocellulose membrane (GE Healthcare, Amersham Protran® Supported 0.45 mm NC) at 90 V for 90 min on ice in transfer buffer (48 mM Tris base and 39 mM glycine supplemented with 20% methanol). The transferred membrane was blocked with 5% (w/v) skim milk powder dissolved in tris-buffered saline with tween (TBS-T) (50 mM Tris base, 150 mM sodium chloride (NaCl), 0.1% (v/v) Tween-20) at room temperature for 1 hour.

Rab10 pThr73 [1] = test: Rab10 Thr73 dephosphorylation (immunoblot) in LRRK2^G2019S MEFs; type: cell-based, mouse; conditions: Mus musculus; for inhibition at 1 µM: read-out: pRab10 inhibited in LRRK2^G2019S MEFs; for EC50: dose response, 4 h treatment, read-out: G2019S MEFs-pRab10-dephosphorylation EC50
Rab10 pThr73 [2] = test: Rab10 Thr73 dephosphorylation (immunoblot) in WT MEFs; type: cell-based, mouse; conditions: Mus musculus; for inhibition at 0.033 µM / inhibition at 1 µM: read-out: pRab10 inhibited in WT MEFs; for EC50: dose response, 4 h treatment, read-out: WT MEFs pRab10-dephosphrylation EC50
Method in brief: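 Wild-type mouse embryonic fibroblasts in 6-well plates were treated with LRRK2 PROTACs, with two biological replicates per condition. Cells were washed in PBS and lysed on ice in buffer containing phosphatase and protease inhibitors plus 1% Triton X-100, then clarified at 15,000 g. Rab10 Thr73 phosphorylation was measured by quantitative immunoblotting of 15 to 20 μg protein on 4-12% Bis-Tris gels.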

Rab10 pThr73 [3] = test: Rab10 Thr73 dephosphorylation (immunoblot) in LRRK2^G2019S MEFs; type: cell-based; conditions: Mus musculus, read-out: pRab10 inhibited in LRRK2^G2019S MEFs
LRRK2^WT = target: T2, LRRK2^WT (Mus musculus, UniProt Q5S006); test: Western blot LRRK2 degradation in WT MEFs; type: cell-based; conditions: dose response, 4 h treatment; for Dmax: read-out: Dmax on WT MEFs
T2 construct: endogenous in cells; host or cells: primary wild-type mouse embryonic fibroblasts (MEFs)
T2 sequence (Q5S006 whole entry): as the sequence (Q5S006 whole entry G2019S) above, with S2019G counted along it
Procedure: as §1, with “Western blot degradation assays for the LRRK2 protacs were performed with WT and PD-associated LRRK2 [G2019S] mouse embryonic fibroblasts (MEFs). The second-generation” for “The second-generation”
as §2
Culturing and passaging of adherent cell lines were carried out using aseptic technique in CL1 or CL2 (for PBMC isolation) biological safety cabinets. All cells were incubated in a 37° C. incubator with 5% CO2. Cell lines were regularly tested for mycoplasma contamination. For western blot assay, the cells were seeded in 6-well plates. After treating with testing compounds at indicated concentrations and time period, the media was removed and the cells were washed with PBS and lysed in 100 μl ice-cold complete lysis buffer containing 50 mM Tris-HCl pH 7.4, 1 mM EGTA, 10 mM 2-glycerophosphate, 50 mM sodium fluoride, 5 mM sodium pyrophosphate, 270 mM sucrose, supplemented with 1 μg/ml microcystin-LR, 1 mM sodium orthovanadate, complete EDTA-free protease inhibitor cocktail (Roche) and 1% (v/v) Triton X-100. The cells were immediately placed on ice and were scraped and collected into 1.5 ml Eppendorf tubes. Cell lysates were incubated on ice for 10 minutes prior to centrifugation at 15,000 g at 4° C. for 15 minutes. The cell pellet was discarded, and supernatant was collected for analysis by quantitative immunoblotting. For long term storage, the supernatant was flash frozen and stored at −80° C. Protein concentrations of cell lysates were determined using the Bradford assay.
Cell lysates containing a quarter of a volume of 4× NuPAGE LDS sample buffer (NP0007) supplemented with 5% β-mercaptoethanol, were heated at 95° C. for 5 minutes. […]

Structure (SMILES) | DC50 (LRRK2^G2019S) [nM] | Dmax (LRRK2^G2019S) [%] | inhibition at 1 µM (Rab10 pThr73 [1]; 1 μM/4 h treatment) [%] | inhibition at 1 µM (Rab10 pThr73 [1]; 1 μM/24 h treatment) [%] | EC50 (Rab10 pThr73 [1]) [nM] | inhibition at 0.033 µM (Rab10 pThr73 [2]; 33 nM/4 h treatment) [%] | inhibition at 0.033 µM (Rab10 pThr73 [2]; 33 nM/24 h treatment) [%] | inhibition at 1 µM (Rab10 pThr73 [2]; 1 μM/4 h treatment) [%] | inhibition at 1 µM (Rab10 pThr73 [2]; 1 μM/24 h treatment) [%] | EC50 (Rab10 pThr73 [2]) [nM] | inhibition at 0.033 µM (Rab10 pThr73 [3]; 33 nM/4 h treatment) [%] | inhibition at 0.033 µM (Rab10 pThr73 [3]; 33 nM/24 h treatment) [%] | DC50 (LRRK2^WT) [nM] | Dmax (LRRK2^WT) [%]
CNc1nc(Nc2ccc(C(=O)N3CCN(C[C@H]4CC[C@H](CSC(C)(C)[C@H](NC(=O)C5(F)CC5)C(=O)N5C[C@H](O)CC5C(=O)NCc5ccc(-c6scnc6C)cc5C)CC4)CC3)cc2OC)ncc1Cl (stereo partly drawn) [XL02048, (2S,4R)-1-((R)-3-((((1R,4R)-4-((4-(4-((5-chloro-4-(methylamino)pyrimidin-2-yl)amino)-3-methoxybenzoyl)piperazin-1-yl)methyl)cyclohexyl)methyl)thio)-2-(1-fluorocyclopropane-1-carboxamido)-3-methylbutanoyl)-4-hydroxy-N-(2-methyl-4-(4-methylthiazol-5-yl)benzyl)pyrrolidine-2-carboxamide] | 23 | 83.5 | 10 to 100 | 80 to 100 | 53 | 0 to 70 | 0 to 80 | 80 to 100 | 80 to 100 | 72 | 0 to 90 | 30 to 90 | 46 | 81.5
CNc1nc(Nc2ccc(C(=O)N3CCN(C[C@H]4CC[C@H](CSC(C)(C)[C@H](NC(=O)C5(F)CC5)C(=O)N5C[C@H](O)CC5C(=O)N[C@@H](C)c5ccc(-c6scnc6C)cc5)CC4)CC3)cc2OC)ncc1Cl (stereo partly drawn) [XL02049, (2S,4R)-1-((R)-3-((((1R,4R)-4-((4-(4-((5-chloro-4-(methylamino)pyrimidin-2-yl)amino)-3-methoxybenzoyl)piperazin-1-yl)methyl)cyclohexyl)methyl)thio)-2-(1-fluorocyclopropane-1-carboxamido)-3-methylbutanoyl)-4-hydroxy-N—((S)-1-(4-(4-methylthiazol-5-yl)phenyl)ethyl)pyrrolidine-2-carboxamide] | 27 | 90 | 10 to 100 | 80 to 100 | 31 | 0 to 70 | 0 to 80 | 80 to 100 | 80 to 100 | 65 | 0 to 90 | 30 to 90 | 40 | 76.5
CNc1nc(Nc2ccc(C(=O)N3CCN(C[C@H]4CC[C@@H](CSC(C)(C)[C@H](NC(=O)C5(F)CC5)C(=O)N5C[C@H](O)CC5C(=O)NCc5ccc(-c6scnc6C)cc5C)CC4)CC3)cc2OC)ncc1Cl (stereo partly drawn) [XL02059, (2S,4R)-1-((R)-3-((((1s,4S)-4-((4-(4-((5-chloro-4-(methylamino)pyrimidin-2-yl)amino)-3-methoxybenzoyl)piperazin-1-yl)methyl)cyclohexyl)methyl)thio)-2-(1-fluorocyclopropane-1-carboxamido)-3-methylbutanoyl)-4-hydroxy-N-(2-methyl-4-(4-methylthiazol-5-yl)benzyl)pyrrolidine-2-carboxamide] | – | 76 | 10 to 100 | 80 to 100 | 55 | 0 to 70 | 0 to 80 | 80 to 100 | 80 to 100 | 227 | 0 to 90 | 30 to 90 | – | 77.5
CNc1nc(Nc2ccc(C(=O)N3CCN(C[C@H]4CC[C@@H](CSC(C)(C)[C@H](NC(=O)C5(F)CC5)C(=O)N5C[C@H](O)CC5C(=O)N[C@@H](C)c5ccc(-c6scnc6C)cc5)CC4)CC3)cc2OC)ncc1Cl (stereo partly drawn) [XL02060, (2S,4R)-1-((R)-3-((((1s,4S)-4-((4-(4-((5-chloro-4-(methylamino)pyrimidin-2-yl)amino)-3-methoxybenzoyl)piperazin-1-yl)methyl)cyclohexyl)methyl)thio)-2-(1-fluorocyclopropane-1-carboxamido)-3-methylbutanoyl)-4-hydroxy-N—((S)-1-(4-(4-methylthiazol-5-yl)phenyl)ethyl)pyrrolidine-2-carboxamide] | – | 78.5 | 10 to 100 | 80 to 100 | 27 | 0 to 70 | 0 to 80 | 80 to 100 | 80 to 100 | 32 | 0 to 90 | 30 to 90 | – | 71
